Key:
[1] = target: T1, Serine/threonine-protein kinase PAK 4 (Homo sapiens, UniProt O96013); assay: Inhibition of myc-tagged PAK4 (unknown origin) using histone H3 as substrate preincubated for 30 mins followed by substrate addition measured for 30 mins in presence of [gamma-32P]ATP by autoradiographic method
[2] = target: T1, Serine/threonine-protein kinase PAK 4; assay: Inhibition of recombinant human N-terminal GST-fused PAK4 (1 to 591 residues) expressed in baculovirus expression system using S2 as substrate measured after 40 mins by HTRF assay
[3] = Oral bioavailability in metastatic solid tumor patient; assay type: ADME, organism-based; details: human, in vivo

T1 sequence (O96013 whole entry, the tested form may be a part): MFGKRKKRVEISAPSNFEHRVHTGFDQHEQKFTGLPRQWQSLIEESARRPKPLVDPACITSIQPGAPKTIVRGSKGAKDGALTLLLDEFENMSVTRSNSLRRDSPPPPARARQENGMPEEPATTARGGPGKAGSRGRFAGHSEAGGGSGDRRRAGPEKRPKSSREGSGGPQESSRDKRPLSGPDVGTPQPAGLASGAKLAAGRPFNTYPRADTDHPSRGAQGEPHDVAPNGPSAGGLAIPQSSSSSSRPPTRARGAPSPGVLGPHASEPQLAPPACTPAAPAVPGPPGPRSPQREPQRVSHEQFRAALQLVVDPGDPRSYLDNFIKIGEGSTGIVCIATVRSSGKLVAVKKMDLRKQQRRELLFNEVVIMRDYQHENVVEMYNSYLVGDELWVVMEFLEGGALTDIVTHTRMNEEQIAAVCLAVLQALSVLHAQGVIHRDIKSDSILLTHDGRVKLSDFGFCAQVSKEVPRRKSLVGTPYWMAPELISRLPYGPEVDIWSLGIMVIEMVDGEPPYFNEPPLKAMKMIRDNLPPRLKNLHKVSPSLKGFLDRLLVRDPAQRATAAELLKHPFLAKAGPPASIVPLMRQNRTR

| Structure (SMILES) | IC50 [2] [nM] | also measured |
| --- | --- | --- |
| COc1cccc(Nc2nc(NCC3CCCO3)c3ccccc3n2)c1 (configuration not stated) |  | IC50 [1]: 14500 nM |
| Clc1ccc2nc(Nc3ccc4[nH]nnc4c3)nc(NCCc3c[nH]c4ccccc34)c2c1 | 1160 |  |
| COc1ccc2c(Nc3ccc4[nH]ncc4c3)nc(NCCc3c[nH]c4ccccc34)nc2c1 | 483 |  |
| Clc1ccc2nc(Nc3cc(Br)c4[nH]ncc4c3)nc(NCCc3c[nH]c4ccccc34)c2c1 | 1060 |  |
| Clc1ccc2nc(Nc3ccc4cn[nH]c4c3)nc(NCCc3c[nH]c4ccccc34)c2c1 | 2040 |  |
| Clc1ccc2nc(Nc3ccc4[nH]cnc4c3)nc(NCCc3c[nH]c4ccccc34)c2c1 | 3070 |  |
| COc1ccc2nc(NCCc3c[nH]c4ccccc34)nc(Nc3ccc4[nH]ncc4c3)c2c1 | 1510 |  |
| Clc1ccc2nc(Nc3cc(Cl)c4[nH]ncc4c3)nc(NCCc3c[nH]c4ccccc34)c2c1 | 937 |  |
| Cc1cc(Nc2nc(NCCc3c[nH]c4ccccc34)c3cc(Cl)ccc3n2)cc2cn[nH]c12 | 2330 |  |
| O=C1Cc2cc(Nc3nc(NCCc4c[nH]c5ccccc45)c4cc(Cl)ccc4n3)ccc2N1 | 1760 |  |
| Clc1ccc2nc(Nc3cnc4[nH]ncc4c3)nc(NCCc3c[nH]c4ccccc34)c2c1 | 633 |  |
| Cc1nc(Nc2n[nH]c3c2CN(C(=O)N[C@H](CN(C)C)c2ccccc2)C3(C)C)c2sccc2n1 [PF-03758309] |  | bioavailability [3]: 1% |

Reference: ChEMBL document CHEMBL4011593, “Development of 2, 4-diaminoquinazoline derivatives as potent PAK4 inhibitors by the core refinement strategy” (Eur J Med Chem, 2017)
